Tests used:
GST-JAK1(866-1154) = biological target: T1, GST-JAK1(866-1154) (Homo sapiens, UniProt P23458); test: EPK JAK-family kinases profiling assay (Caliper mobility shift), JAK1; format: biochemical; settings: ATP 40 μM, 50 nM kinase
T1 construct: GST-JAK1(866-1154); made in house
Method in brief: (§1)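 Turnover was read as substrate/product ratio after mobility-shift capillary-like separation of each reaction, run for 60 min at 30 °C with GST-tagged kinase domain, labelled peptide and ATP, and terminated with EDTA stop buffer.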

GST-JAK2(808-1132) = biological target: T2, GST-JAK2(808-1132) (Homo sapiens, UniProt O60674); test: EPK JAK-family kinases profiling assay (Caliper mobility shift), JAK2; format: biochemical; settings: ATP 20 μM, 1.8 nM kinase
T2 construct: GST-JAK2(808-1132); purchased Invitrogen (Carlsbad, USA) #4288
T2 sequence (O60674 808-1132): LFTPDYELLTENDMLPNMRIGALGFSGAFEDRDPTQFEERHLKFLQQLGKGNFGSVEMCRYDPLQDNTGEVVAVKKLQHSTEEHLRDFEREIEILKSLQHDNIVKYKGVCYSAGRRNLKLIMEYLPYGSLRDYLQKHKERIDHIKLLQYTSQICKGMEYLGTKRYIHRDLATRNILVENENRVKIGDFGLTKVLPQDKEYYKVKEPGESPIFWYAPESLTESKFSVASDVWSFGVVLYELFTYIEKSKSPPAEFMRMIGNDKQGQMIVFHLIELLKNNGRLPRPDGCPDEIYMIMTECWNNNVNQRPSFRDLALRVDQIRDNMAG
Method in brief: as §1

GST-JAK3(811-1124) = biological target: T3, GST-JAK3(811-1124) (Homo sapiens, UniProt P52333); test: EPK JAK-family kinases profiling assay (Caliper mobility shift), JAK3; format: biochemical; settings: ATP 80 μM, 6 nM kinase
T3 construct: GST-JAK3(811-1124); made in house
T3 sequence (P52333 811-1124): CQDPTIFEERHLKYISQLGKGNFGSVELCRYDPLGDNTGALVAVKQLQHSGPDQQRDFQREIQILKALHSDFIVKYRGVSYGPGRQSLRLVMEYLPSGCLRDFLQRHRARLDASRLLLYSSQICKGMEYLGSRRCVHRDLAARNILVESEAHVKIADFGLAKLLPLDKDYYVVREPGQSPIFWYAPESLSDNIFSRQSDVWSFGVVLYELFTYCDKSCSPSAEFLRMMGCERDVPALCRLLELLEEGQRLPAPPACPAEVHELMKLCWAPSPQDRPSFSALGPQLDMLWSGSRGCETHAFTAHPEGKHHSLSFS
Method in brief: as §1

GST-TYK2(888-1187) = biological target: T4, GST-TYK2(888-1187) (Homo sapiens, UniProt P29597); test: EPK JAK-family kinases profiling assay (Caliper mobility shift), TYK2; format: biochemical; settings: ATP 30 μM, 40 nM kinase
T4 construct: GST-TYK2(888-1187); made in house
T4 sequence (P29597 888-1187): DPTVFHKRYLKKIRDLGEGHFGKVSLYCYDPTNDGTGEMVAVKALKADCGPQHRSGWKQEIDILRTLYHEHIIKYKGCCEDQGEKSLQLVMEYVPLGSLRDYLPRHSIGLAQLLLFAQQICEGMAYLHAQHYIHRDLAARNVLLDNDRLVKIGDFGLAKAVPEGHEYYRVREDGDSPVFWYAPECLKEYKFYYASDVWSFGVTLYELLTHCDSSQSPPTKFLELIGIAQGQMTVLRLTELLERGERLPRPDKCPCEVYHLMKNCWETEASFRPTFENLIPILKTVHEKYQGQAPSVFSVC
Method in brief: as §1

[1] = tested on: JAK/STAT pathway (JAK1/JAK2-dependent nuclear translocation of STAT1-GFP); test: Inhibition of the JAK/STAT pathway: IFN-γ stimulated nuclear translocation of STAT1-GFP in HT1080 fibrosarcoma cells; format: cell-based; settings: Homo sapiens, HT-1080; HT1080 STAT1-GFP cells, 100 ng/ml IFN-γ 2 hours, compound added 30 min before; read-out: STAT1translo IC50
Method in brief: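 Readout is the nuclear-minus-cytoplasmic GFP-STAT1 intensity, imaged at 10× using Hoechst-defined nuclear masks over at least 1000 cells/well. Stably transfected HT1080 fibrosarcoma cells were pretreated 30 min with compound (final 0.003–10 μM, 0.1% DMSO) before IFN-γ challenge.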

T1 sequence (P23458 866-1154): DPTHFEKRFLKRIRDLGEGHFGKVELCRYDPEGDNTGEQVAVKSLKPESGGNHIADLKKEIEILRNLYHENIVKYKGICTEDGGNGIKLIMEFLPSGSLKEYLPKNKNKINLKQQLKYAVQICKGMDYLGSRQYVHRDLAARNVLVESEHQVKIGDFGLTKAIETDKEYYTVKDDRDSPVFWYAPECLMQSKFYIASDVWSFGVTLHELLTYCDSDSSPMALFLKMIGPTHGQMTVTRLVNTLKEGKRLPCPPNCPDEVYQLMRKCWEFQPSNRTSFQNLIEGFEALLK

SMILES: COCCOc1ccc(-c2cnc3cccc(-c4ccc(CN5CCS(=O)(=O)CC5)c(C)c4)c3n2)cc1OC [Example 52, 8-[4-(1,1-Dioxido-thiomorpholin-4-ylmethyl)-3-methyl-phenyl]-2-[3-methoxy-4-(2-methoxy-ethoxy)-phenyl]-quinoxaline]
- IC50 (GST-JAK1(866-1154)): 97.5 nM
- IC50 (GST-JAK2(808-1132)): 32 nM
- IC50 (GST-JAK3(811-1124)): 1100 nM
- IC50 (GST-TYK2(888-1187)): 985 nM
- IC50 [1]: 2950 nM

SMILES: COc1cc(-c2cnc3cccc(-c4ccc(CC(=O)N5CCOCC5)cc4)c3n2)ccc1OCCCN1CCOCC1 [Example 83, 2-(4-{3-[3-Methoxy-4-(3-morpholin-4-yl-propoxy)-phenyl]-quinoxalin-5-yl}-phenyl)-1-morpholin-4-yl-ethanone]
- IC50 (GST-JAK1(866-1154)): 33.5 nM
- IC50 (GST-JAK2(808-1132)): 6.25 nM
- IC50 (GST-JAK3(811-1124)): 890 nM
- IC50 (GST-TYK2(888-1187)): 270 nM
- IC50 [1]: 2080 nM

SMILES: Cc1cc(-c2cnc3cccc(-c4cc(F)c(CN5CCS(=O)(=O)CC5)c(F)c4)c3n2)ccc1C(=O)N1CCC(N(C)C)CC1 [Example 102, (4-Dimethylamino-piperidin-1-yl)-(4-{8-[4-(1,1-dioxido-thiomorpholin-4-ylmethyl)-3,5-difluoro-phenyl]-quinoxalin-2-yl}-2-methyl-phenyl)-methanone]
- IC50 (GST-JAK1(866-1154)): 1220 nM
- IC50 (GST-JAK2(808-1132)): 74 nM
- IC50 (GST-JAK3(811-1124)): 5330 nM
- IC50 (GST-TYK2(888-1187)): 2730 nM
- IC50 [1]: 31.5 nM

SMILES: Cc1cc(-c2cnc3cccc(-c4ccc(CN5CCS(=O)(=O)CC5)c(C)c4)c3n2)ccc1CN1CCOCC1 [Example 70, 8-[4-(1,1-Dioxido-thiomorpholin-4-ylmethyl)-3-methyl-phenyl]-2-(3-methyl-4-morpholin-4-ylmethyl-phenyl)-quinoxaline]
- IC50 (GST-JAK1(866-1154)): 360 nM
- IC50 (GST-JAK2(808-1132)): 30.5 nM
- IC50 (GST-JAK3(811-1124)): 1750 nM
- IC50 (GST-TYK2(888-1187)): 1350 nM
- IC50 [1]: 564 nM

SMILES: CN(C)CCN(C)C(=O)c1ccc(-c2cnc3cccc(-c4cc(F)c(CN5CCS(=O)(=O)CC5)c(F)c4)c3n2)cn1 [Example 111, 5-{8-[4-(1,1-Dioxido-thiomorpholin-4-ylmethyl)-3,5-difluoro-phenyl]-quinoxalin-2-yl}-pyridine-2-carboxylic acid (2-dimethylamino-ethyl)-methyl-amide]
- IC50 (GST-JAK1(866-1154)): 920 nM
- IC50 (GST-JAK2(808-1132)): 105 nM
- IC50 (GST-JAK3(811-1124)): 9300 nM
- IC50 (GST-TYK2(888-1187)): 1700 nM
- IC50 [1]: 1230 nM

SMILES: COc1cc(-c2cnc3cccc(-c4cc(F)c(CN5CCS(=O)(=O)CC5)c(F)c4)c3n2)ccc1OCCCN1CCOCC1 [Example 86, 8-[4-(1,1-Dioxido-thiomorpholin-4-ylmethyl)-3,5-difluoro-phenyl]-2-[3-methoxy-4-(3-morpholin-4-yl-propoxy)-phenyl]-quinoxaline]
- IC50 (GST-JAK1(866-1154)): 6.65 nM
- IC50 (GST-JAK2(808-1132)): < 3 nM
- IC50 (GST-JAK3(811-1124)): 110 nM
- IC50 (GST-TYK2(888-1187)): 38 nM
- IC50 [1]: 93 nM

SMILES: Cc1cc(-c2cccc3ncc(-c4ccc(C(=O)N5CCN(C)CC5)c(C)c4)nc23)ccc1CN1CCS(=O)(=O)CC1 [Example 43, (4-{8-[4-(1,1-Dioxido-thiomorpholin-4-ylmethyl)-3-methyl-phenyl]-quinoxalin-2-yl}-2-methyl-phenyl)-(4-methyl-piperazin-1-yl)-methanone]
- IC50 (GST-JAK1(866-1154)): 420 nM
- IC50 (GST-JAK2(808-1132)): 27 nM
- IC50 (GST-JAK3(811-1124)): 870 nM
- IC50 (GST-TYK2(888-1187)): 715 nM
- IC50 [1]: 1130 nM

SMILES: CCN1CCN(Cc2ccc(-c3cnc4cccc(-c5cc(F)c(CN6CCOCC6)c(F)c5)c4n3)cc2C)CC1 [Example 92, 8-(3,5-Difluoro-4-morpholin-4-ylmethyl-phenyl)-2-[4-(4-ethyl-piperazin-1-ylmethyl)-3-methyl-phenyl]-quinoxaline]
- IC50 (GST-JAK1(866-1154)): 1380 nM
- IC50 (GST-JAK2(808-1132)): 43 nM
- IC50 (GST-JAK3(811-1124)): 4900 nM
- IC50 (GST-TYK2(888-1187)): 3650 nM
- IC50 [1]: 2140 nM

SMILES: Cc1cc(-c2cnc3cccc(-c4cc(F)c(CN5CCS(=O)(=O)CC5)c(F)c4)c3n2)cnc1C(=O)N(C)CCN(C)C [Example 113, 5-{8-[4-(1,1-Dioxido-thiomorpholin-4-ylmethyl)-3,5-difluoro-phenyl]-quinoxalin-2-yl}-3-methyl-pyridine-2-carboxylic acid (2-dimethylamino-ethyl)-methyl-amide]
- IC50 (GST-JAK1(866-1154)): 615 nM
- IC50 (GST-JAK2(808-1132)): 28.5 nM
- IC50 (GST-JAK3(811-1124)): 3300 nM
- IC50 (GST-TYK2(888-1187)): 1150 nM
- IC50 [1]: 1940 nM

SMILES: Cc1cc(-c2cnc3cccc(-c4cc(F)c(CN5CCOCC5)c(F)c4)c3n2)cnc1C(=O)N(C)CCN(C)C [Example 112, 5-[8-(3,5-Difluoro-4-morpholin-4-ylmethyl-phenyl)-quinoxalin-2-yl]-3-methyl-pyridine-2-carboxylic acid (2-dimethylamino-ethyl)-methyl-amide]
- IC50 (GST-JAK1(866-1154)): 5350 nM
- IC50 (GST-JAK2(808-1132)): 320 nM
- IC50 (GST-JAK3(811-1124)): > 10000 nM
- IC50 (GST-TYK2(888-1187)): > 10000 nM
- IC50 [1]: 13600 nM

SMILES: O=C(c1c(F)cc(-c2cccc3ncc(-c4cnn(C5CCNCC5)c4)nc23)cc1F)N1CCOCC1 [Example 97, {2,6-Difluoro-4-[3-(1-piperidin-4-yl-1H-pyrazol-4-yl)-quinoxalin-5-yl]-phenyl}-morpholin-4-yl-methanone]
- IC50 (GST-JAK1(866-1154)): 720 nM
- IC50 (GST-JAK2(808-1132)): 19.5 nM
- IC50 (GST-JAK3(811-1124)): 9150 nM
- IC50 (GST-TYK2(888-1187)): 510 nM
- IC50 [1]: 495 nM

SMILES: Cc1cc(-c2cnc3cccc(-c4cc(F)c(CN5CCOCC5)c(F)c4)c3n2)ccc1C(=O)N1CCN(C)CC1 [Example 42, {4-[8-(3,5-Difluoro-4-morpholin-4-ylmethyl-phenyl)-quinoxalin-2-yl]-2-methyl-phenyl}-(4-methyl-piperazin-1-yl)-methanone]
- IC50 (GST-JAK1(866-1154)): 715 nM
- IC50 (GST-JAK2(808-1132)): 18 nM
- IC50 (GST-JAK3(811-1124)): 2150 nM
- IC50 (GST-TYK2(888-1187)): 1450 nM
- IC50 [1]: 857 nM

SMILES: COCCOc1ccc(-c2cnc3cccc(-c4cc(F)c(CN5CCS(=O)(=O)CC5)c(F)c4)c3n2)cc1OC [Example 53, 8-[4-(1,1-Dioxido-thiomorpholin-4-ylmethyl)-3,5-difluoro-phenyl]-2-[3-methoxy-4-(2-methoxy-ethoxy)-phenyl]-quinoxaline]
- IC50 (GST-JAK1(866-1154)): 12 nM
- IC50 (GST-JAK2(808-1132)): < 3 nM
- IC50 (GST-JAK3(811-1124)): 215 nM
- IC50 (GST-TYK2(888-1187)): 93.5 nM
- IC50 [1]: 150 nM

SMILES: Cc1cc(-c2cnc3cccc(-c4cc(F)c(CN5CCOCC5)c(F)c4)c3n2)ccc1C(=O)N(C)CCN(C)C [Example 94, 4-[8-(3,5-Difluoro-4-morpholin-4-ylmethyl-phenyl)-quinoxalin-2-yl]-N-(2-dimethylamino-ethyl)-2,N-dimethyl-benzamide]
- IC50 (GST-JAK1(866-1154)): 455 nM
- IC50 (GST-JAK2(808-1132)): 27 nM
- IC50 (GST-JAK3(811-1124)): 2150 nM
- IC50 (GST-TYK2(888-1187)): 985 nM
- IC50 [1]: 1530 nM

SMILES: COCCn1cc(-c2cnc3cccc(-c4cc(F)c(CN5CCOCC5)c(F)c4)c3n2)cn1 [Example 115, 8-(3,5-Difluoro-4-morpholin-4-ylmethyl-phenyl)-2-[1-(2-methoxy-ethyl)-1H-pyrazol-4-yl]-quinoxaline]
- IC50 (GST-JAK1(866-1154)): 72.5 nM
- IC50 (GST-JAK2(808-1132)): 9.3 nM
- IC50 (GST-JAK3(811-1124)): 1600 nM
- IC50 (GST-TYK2(888-1187)): 480 nM
- IC50 [1]: 1440 nM

SMILES: Cc1cc(-c2cccc3ncc(-c4cnn(CCCN5CCOCC5)c4)nc23)ccc1C(=O)N1CCOCC1 [Example 114, (2-Methyl-4-{3-[1-(3-morpholin-4-yl-propyl)-1H-pyrazol-4-yl]-quinoxalin-5-yl}-phenyl)-morpholin-4-yl-methanone]
- IC50 (GST-JAK1(866-1154)): 250 nM
- IC50 (GST-JAK2(808-1132)): 11.5 nM
- IC50 (GST-JAK3(811-1124)): 1650 nM
- IC50 (GST-TYK2(888-1187)): 345 nM
- IC50 [1]: 6380 nM

SMILES: Cc1cc(-c2cnc3cccc(-c4cc(F)c(CN5CCOCC5)c(F)c4)c3n2)ccc1CN1CCOCC1 [Example 71, 8-(3,5-Difluoro-4-morpholin-4-ylmethyl-phenyl)-2-(3-methyl-4-morpholin-4-ylmethyl-phenyl)-quinoxaline]
- IC50 (GST-JAK1(866-1154)): 160 nM
- IC50 (GST-JAK2(808-1132)): 8.1 nM
- IC50 (GST-JAK3(811-1124)): 790 nM
- IC50 (GST-TYK2(888-1187)): 510 nM
- IC50 [1]: 2480 nM

SMILES: Cc1cc(-c2cnc3cccc(-c4cc(F)c(CN5CCS(=O)(=O)CC5)c(F)c4)c3n2)ccc1C(=O)N(C)CCN(C)C [Example 95, N-(2-Dimethylamino-ethyl)-4-{8-[4-(1,1-dioxido-thiomorpholin-4-ylmethyl)-3,5-difluoro-phenyl]-quinoxalin-2-yl}-2,N-dimethyl-benzamide]
- IC50 (GST-JAK1(866-1154)): 18 nM
- IC50 (GST-JAK2(808-1132)): < 3 nM
- IC50 (GST-JAK3(811-1124)): 73.5 nM
- IC50 (GST-TYK2(888-1187)): 40 nM
- IC50 [1]: 105 nM

SMILES: Cc1cc(-c2cnc3cccc(-c4cc(F)c(CN5CCOCC5)c(F)c4)c3n2)ccc1C(=O)N1CCC(N(C)C)CC1 [Example 101, {4-[8-(3,5-Difluoro-4-morpholin-4-ylmethyl-phenyl)-quinoxalin-2-yl]-2-methyl-phenyl}-(4-dimethylamino-piperidin-1-yl)-methanone]
- IC50 (GST-JAK1(866-1154)): 575 nM
- IC50 (GST-JAK2(808-1132)): 14 nM
- IC50 (GST-JAK3(811-1124)): 1020 nM
- IC50 (GST-TYK2(888-1187)): 1450 nM

— patent publication US8193189B2, “Quinoxaline derivatives as tyrosine kinase activity inhibitors” (Novartis AG, priority 2007, dated 2012)
